Assay results taken from patent US20050282755A1, “Compositions having antimicrobial activity and uses thereof” (priority 2004, published 2005).
Converted amounts (≈) assume the structure as drawn. Non-standard residues stand in square brackets, D forms with d. Residues, ends and D or L forms follow the SMILES beside them. *: point of attachment. Lauroyl = CCCCCCCCCCCC(=O)*

How the values were obtained:
Type in all cases: cell-based
[1] = test system: Staphylococcus aureus ATCC 29213; experiment: MIC, NCCLS M7-A6 broth microdilution, cation-adjusted Mueller Hinton broth (Table 9, no superscript); details: ATCC 29213
Outline: (§1)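 MIC, read as the lowest peptide concentration without visible growth compared with peptide-free wells, after overnight incubation at 37° C. Wells held cation-adjusted Mueller Hinton broth and a final inoculum of 5×10^5 to 1×10^6 CFU/mL from log-phase culture.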

[2] = test system: Pseudomonas aeruginosa ATCC 27853; experiment: MIC, NCCLS M7-A6 broth microdilution (Table 9, no superscript); details: ATCC 27853
Outline: as §1

[3] = test system: Staphylococcus epidermidis ATCC 12228; experiment: as above; details: ATCC 12228
Outline: as §1

[4] = test system: Escherichia coli ATCC 25922; experiment: as above; details: ATCC 25922
Outline: as §1

Salmonella dublin (Lane) = experiment: as above
Outline: as §1

[5] = test system: Candida albicans ATCC 18804; experiment: MIC in yeasts, NCCLS M27-A2 broth microdilution, RPMI 1640 (Table 9, letter e); details: ATCC 18804
Method: Briefly, RPMI 1640 supplemented with glutamine and phenol red as a pH indicator was used in the broth microdilution method. A 96-well plate was inoculated so that the final inoculum of yeast for each well contained between 0.5×10^3 and 2.5×10^3 CFU/milliliter. […] Plates were incubated for 24 to 48 hours at 37° C. The lowest concentration of peptide that contained no visible growth was determined as the MIC. MIC values that utilized this method of MIC determination are indicated in Table 9 with a subscript letter “e.” “Peptide Number” corresponds to peptide compositions and corresponding designations in Table 3.

SMILES	MIC S. aureus [1]	MIC P. aeruginosa [2]	MIC S. epidermidis [3]	MIC E. coli [4]	MIC S. dublin (Salmonella dublin (Lane))	MIC C. albicans [5]
CCCCCCCCCCCC(=O)N[C@H](Cc1c[nH]c2ccccc12)C(=O)N[C@H](CCCNC(=N)N)C(=O)N[C@H](CC(=O)O)C(=O)N[C@@H](C(=O)N[C@H](C)C(=O)N[C@H](CCCNC(=N)N)C(=O)N[C@H](CC(N)=O)C(=O)N[C@H](Cc1ccccc1)C(=O)N[C@H](CCSC)C(=O)N[C@H](CCCNC(=N)N)C(N)=O)C(C)C [Peptide 129, Lauryl-wrdvarnfmr-NH2] (Lauroyl-[dW][dR][dD][dV][dA][dR][dN][dF][dM][dR]-NH2)	>64 µg/mL	>64 µg/mL	32 µg/mL (≈ 20.9 µM)	>64 µg/mL	>64 µg/mL	>64e ug/mL
CCCCCCCCCCCC(=O)N[C@@H](CCCNC(=N)N)C(=O)N[C@@H](CO)C(=O)N[C@@H](CCCNC(=N)N)C(=O)N[C@@H](Cc1c[nH]c2ccccc12)C(=O)N[C@@H](CCCNC(=N)N)C(=O)N[C@@H](CC(=O)O)C(=O)N[C@H](C(=O)N[C@@H](C)C(=O)N[C@@H](CCCNC(=N)N)C(=O)N[C@@H](CC(N)=O)C(=O)N[C@@H](Cc1ccccc1)C(=O)N[C@@H](CC(C)C)C(=O)N[C@@H](CCCNC(=N)N)C(N)=O)C(C)C [Peptide 135, Lauryl-RSRWRDVARNFLR-NH2] (Lauroyl-RSRWRDVARNFLR-NH2)	2 µg/mL (≈ 1.05 µM)	4 µg/mL (≈ 2.09 µM)	1 µg/mL (≈ 0.523 µM)	4 µg/mL (≈ 2.09 µM)	2 µg/mL (≈ 1.05 µM)	2e ug/mL
CCCCCCCCCCCC(=O)N[C@@H](CCCNC(=N)N)C(=O)N[C@@H](CO)C(=O)N[C@@H](CCCNC(=N)N)C(=O)N[C@@H](Cc1c[nH]c2ccccc12)C(=O)N[C@@H](CCCNC(=N)N)C(=O)N[C@@H](CC(=O)O)C(=O)N[C@H](C(=O)N[C@@H](CC(C)C)C(=O)N[C@@H](CCCNC(=N)N)C(=O)N[C@@H](CC(N)=O)C(=O)N[C@@H](Cc1ccccc1)C(=O)N[C@@H](CC(C)C)C(=O)N[C@@H](CCCNC(=N)N)C(=O)N[C@@H](CC(C)C)C(=O)N[C@@H](CC(C)C)C(N)=O)C(C)C [Peptide 138, Lauryl-RSRWRDVLRNFLRLL-NH2] (Lauroyl-RSRWRDVLRNFLRLL-NH2)	>64 µg/mL	>64 µg/mL	>64 µg/mL	>64 µg/mL	>64 µg/mL	2e ug/mL
CCCCCCCCCCCC(=O)N[C@@H](CCCNC(=N)N)C(=O)N[C@@H](CO)C(=O)N[C@@H](CCCNC(=N)N)C(=O)N[C@@H](Cc1c[nH]c2ccccc12)C(=O)N[C@@H](CCCNC(=N)N)C(=O)N[C@@H](CC(=O)O)C(=O)N[C@H](C(=O)N[C@@H](C)C(=O)N[C@@H](CCCNC(=N)N)C(=O)N[C@@H](CC(N)=O)C(=O)N[C@@H](Cc1ccccc1)C(=O)N[C@@H](CCSC)C(=O)N[C@@H](CCCNC(=N)N)C(=O)N[C@@H](Cc1c[nH]c2ccccc12)C(=O)N[C@@H](Cc1c[nH]c2ccccc12)C(N)=O)C(C)C [Peptide 142, Lauryl-RSRWRDVARNFMRWW-NH2] (Lauroyl-RSRWRDVARNFMRWW-NH2)	64 µg/mL (≈ 27.8 µM)	>64 µg/mL	8 µg/mL (≈ 3.47 µM)	64 µg/mL (≈ 27.8 µM)	>64 µg/mL	4e ug/mL
CCCCCCCCCCCC(=O)N[C@@H](CCCNC(=N)N)C(=O)N[C@@H](CO)C(=O)N[C@@H](CCCNC(=N)N)C(=O)N[C@@H](Cc1c[nH]c2ccccc12)C(=O)N[C@@H](CCCNC(=N)N)C(=O)N[C@@H](CC(=O)O)C(=O)N[C@@H](Cc1c[nH]c2ccccc12)C(=O)N[C@@H](C)C(=O)N[C@@H](CCCNC(=N)N)C(=O)N[C@@H](CC(N)=O)C(=O)N[C@@H](Cc1c[nH]c2ccccc12)C(=O)N[C@@H](CCSC)C(=O)N[C@@H](CCCNC(=N)N)C(=O)N[C@@H](Cc1c[nH]c2ccccc12)C(N)=O [Peptide 144, Lauryl-RSRWRDWARNWMRW-NH2] (Lauroyl-RSRWRDWARNWMRW-NH2)	32 µg/mL (≈ 14.3 µM)	>64 µg/mL	8 µg/mL (≈ 3.57 µM)	>64 µg/mL	64 µg/mL (≈ 28.5 µM)	32e ug/mL
CCCCCCCCCCCC(=O)N[C@@H](CCCNC(=N)N)C(=O)N[C@@H](CO)C(=O)N[C@@H](CCCNC(=N)N)C(=O)N[C@@H](Cc1c[nH]c2ccccc12)C(=O)N[C@@H](CCCNC(=N)N)C(=O)N[C@@H](CC(=O)O)C(=O)N[C@@H](Cc1c[nH]c2ccccc12)C(=O)N[C@@H](C)C(=O)N[C@@H](CCCNC(=N)N)C(=O)N[C@@H](CC(N)=O)C(=O)N[C@@H](Cc1c[nH]c2ccccc12)C(=O)N[C@@H](CCSC)C(=O)N[C@@H](CCCNC(=N)N)C(=O)N[C@@H](Cc1c[nH]c2ccccc12)C(=O)N[C@@H](Cc1c[nH]c2ccccc12)C(N)=O [Peptide 145, Lauryl-RSRWRDWARNWMRWW-NH2] (Lauroyl-RSRWRDWARNWMRWW-NH2)	>64 µg/mL	>64 µg/mL	16 µg/mL (≈ 6.58 µM)	>64 µg/mL	>64 µg/mL	2e ug/mL
CCCCCCCCCCCC(=O)N[C@@H](CCCNC(=N)N)C(=O)N[C@@H](CO)C(=O)N[C@@H](CCCNC(=N)N)C(=O)N[C@@H](Cc1c[nH]c2ccccc12)C(=O)N[C@@H](CCCNC(=N)N)C(=O)N[C@@H](CC(=O)O)C(=O)N[C@@H](Cc1c[nH]c2ccccc12)C(=O)N[C@@H](C)C(=O)N[C@@H](CCCNC(=N)N)C(=O)N[C@@H](CC(N)=O)C(=O)N[C@@H](Cc1c[nH]c2ccccc12)C(=O)N[C@@H](CCSC)C(=O)N[C@@H](CCCNC(=N)N)C(=O)N[C@@H](CC(C)C)C(=O)N[C@@H](CC(C)C)C(N)=O [Peptide 146, Lauryl-RSRWRDWARNWMRLL-NH2] (Lauroyl-RSRWRDWARNWMRLL-NH2)	64 µg/mL (≈ 28 µM)	>64 µg/mL	4 µg/mL (≈ 1.75 µM)	>64 µg/mL	64 µg/mL (≈ 28 µM)	2e ug/mL
CCCCCCCCCCCC(=O)N[C@@H](CCCNC(=N)N)C(=O)N[C@@H](CO)C(=O)N[C@@H](CCCNC(=N)N)C(=O)N[C@@H](Cc1c[nH]c2ccccc12)C(=O)N[C@@H](CCCNC(=N)N)C(=O)N[C@@H](CC(=O)O)C(=O)N[C@@H](Cc1c[nH]c2ccccc12)C(=O)N[C@@H](Cc1c[nH]c2ccccc12)C(=O)N[C@@H](CCCNC(=N)N)C(=O)N[C@@H](CC(N)=O)C(=O)N[C@@H](Cc1c[nH]c2ccccc12)C(=O)N[C@@H](CCSC)C(=O)N[C@@H](CCCNC(=N)N)C(N)=O [Peptide 147, Lauryl-RSRWRDWWRNWMR-NH2] (Lauroyl-RSRWRDWWRNWMR-NH2)	64 µg/mL (≈ 29.5 µM)	>64 µg/mL	2 µg/mL (≈ 0.921 µM)	64 µg/mL (≈ 29.5 µM)	64 µg/mL (≈ 29.5 µM)	2e ug/mL

Other lines, results leading:

MIC S. aureus [1]	MIC P. aeruginosa [2]	MIC S. epidermidis [3]	MIC E. coli [4]	MIC S. dublin (Salmonella dublin (Lane))	MIC C. albicans [5]	SMILES
>64 µg/mL	>64 µg/mL	>64 µg/mL	>64 µg/mL	>64 µg/mL	>64e ug/mL	CCCCCCCCCCCC(=O)N[C@H](CO)C(=O)N[C@H](CCCNC(=N)N)C(=O)N[C@H](Cc1c[nH]c2ccccc12)C(=O)N[C@H](CCCNC(=N)N)C(=O)N[C@H](CC(=O)O)C(=O)N[C@@H](C(=O)N[C@H](C)C(N)=O)C(C)C [Peptide 121, Lauryl-srwrdva-NH2] (Lauroyl-[dS][dR][dW][dR][dD][dV][dA]-NH2)
>64 µg/mL	>64 µg/mL	64 µg/mL (≈ 58.3 µM)	>64 µg/mL	>64 µg/mL	64e ug/mL	CCCCCCCCCCCC(=O)N[C@H](Cc1c[nH]c2ccccc12)C(=O)N[C@H](CCCNC(=N)N)C(=O)N[C@H](CC(=O)O)C(=O)N[C@@H](C(=O)N[C@H](C)C(=O)N[C@H](CCCNC(=N)N)C(=O)N[C@H](CC(N)=O)C(N)=O)C(C)C [Peptide 123, Lauryl-wrdvarn-NH2] (Lauroyl-[dW][dR][dD][dV][dA][dR][dN]-NH2)
>64 µg/mL	>64 µg/mL	>64 µg/mL	>64 µg/mL	>64 µg/mL	64e ug/mL	CCCCCCCCCCCC(=O)N[C@H](CCCNC(=N)N)C(=O)N[C@H](CC(=O)O)C(=O)N[C@@H](C(=O)N[C@H](C)C(=O)N[C@H](CCCNC(=N)N)C(=O)N[C@H](CC(N)=O)C(=O)N[C@H](Cc1ccccc1)C(N)=O)C(C)C [Peptide 124, Lauryl-rdvarnf-NH2] (Lauroyl-[dR][dD][dV][dA][dR][dN][dF]-NH2)
>64 µg/mL	>64 µg/mL	>64 µg/mL	>64 µg/mL	>64 µg/mL	8e ug/mL	CCCCCCCCCCCC(=O)N[C@@H](C(=O)N[C@H](C)C(=O)N[C@H](CCCNC(=N)N)C(=O)N[C@H](CC(N)=O)C(=O)N[C@H](Cc1ccccc1)C(=O)N[C@H](CCSC)C(=O)N[C@H](CCCNC(=N)N)C(N)=O)C(C)C [Peptide 126, Lauryl-varnfmr-NH2] (Lauroyl-[dV][dA][dR][dN][dF][dM][dR]-NH2)
